Literature values, collected in patent US20060228403A1, “Nutritional supplements for cardiovascular health” (priority 2005, published 2006).

Legend:
[1] = tested on: cytochrome P450 omega-hydroxylase; settings: hamster; for magnitude of O2-induced constriction of arterioles in the cremaster and retractor muscles: 17-octadecynoic acid 10 micromolar superfusion, DDMS intravenous infusion
[2] = tested on: forearm microcirculation; settings: after supplementation 4 g/d for 6 weeks
[3] = tested on: thromboxane B2; settings: mice; fish oil daily by gavage six weeks; indomethacin 0.5 mg/kg ip acute
[4] = tested on: platelet aggregation in cerebral arterioles; settings: mice

## C#CCCCCCCCCCCCCCCCC(=O)O [17-octadecynoic acid]
[1]
  arteriolar constriction in response to elevated PO2 in the epithelial portion of the cheek pouch: unaffected
  magnitude of O2-induced constriction of arterioles in the cremaster and retractor muscles: significant reduction

## CC/C=C\C/C=C\C/C=C\C/C=C\C/C=C\C/C=C\CCC(=O)O [DHA, docosahexaenoic acid]
[2]
  plasma phospholipid DHA composition: increased

## CC/C=C\C/C=C\C/C=C\C/C=C\C/C=C\CCCC(=O)O [EPA, eicosapentaenoic acid]
[2]
  plasma phospholipid EPA levels: increased significantly

## COc1ccc2c(c1)c(CC(=O)O)c(C)n2C(=O)c1ccc(Cl)cc1 [Indomethacin, indomethacin]
[3]
  decrease of serum thromboxane B2: 80%
[4]
  effect on arteriolar platelet aggregation: significantly slows
[4]; 0.5 mg/kg ip acute
  increase of time to first arteriolar aggregate: 35%

## CS(=O)(=O)NC(=O)CCCCCCCCCC=C(Br)Br [N-methylsulfonyl-12,12-dibromododec-11-enamide]
[1]
  arteriolar constriction in response to elevated PO2 in the epithelial portion of the cheek pouch: unaffected
  magnitude of O2-induced constriction of arterioles in the cremaster and retractor muscles: significant reduction
